Data from ChEMBL document CHEMBL1136454, “Synthesis and biological activity of N-Acylated ornithine analogues of daptomycin” (Bioorg Med Chem Lett, 2003).
Values after ≈ are worked out from the molar mass of the structure shown.

How the values were obtained:
[1] = In vivo area under curve (AUC) was determined in murine septicemia at dose of 50 mg/kg; type: ADME, organism-based; parameters: dose 50 mg/kg; details: mouse
[2] = In vivo total clearance was determined in murine septicemia at dose of 50 mg/kg; type: ADME, organism-based; parameters: dose 50 mg/kg; details: mouse, read-out: CLtotal (converted)
[3] = In vivo half life period was determined in murine septicemia at dose of 50 mg/kg; type: ADME, organism-based; parameters: dose 50 mg/kg; details: mouse
[4] = In vivo Cmax in mice at dose of 50 mg/kg; type: ADME, organism-based; parameters: dose 50 mg/kg; details: mouse
[5] = In vivo Tmax was determined in murine septicemia at dose of 50 mg/kg; type: ADME, organism-based; parameters: dose 50 mg/kg; details: mouse
[6] = In vivo volume distribution (Vd) was determined in murine septicemia at dose of 50 mg/kg; type: ADME, organism-based; parameters: dose 50 mg/kg; details: mouse
Staphylococcus aureus [7] = assay: Antibacterial activity against methicillin resistant Staphylococcus aureus ATCC 43300 (MRSA); type: functional
Enterococcus faecalis = assay: Antibacterial activity against Enterococcus faecalis ATCC 49452; type: functional
Enterococcus faecium = assay: Antibacterial activity against Enterococcus faecium ATCC 6569; type: functional
Mus musculus = assay: Antibacterial activity was determined by protection from death of mice infected by methicillin resistant Staphylococcus aureus (MRSA) upon sc administration of compound after 4 hr of post infection; type: functional; details: read-out: PD50
Staphylococcus aureus [8] = assay: Antibacterial activity against methicillin susceptible Staphylococcus aureus ATCC 29213 (MSSA ); type: functional
[9] = In vivo area under curve (AUC) was determined in murine septicemia at dose of 100 mg/kg; type: ADME, organism-based; parameters: dose 100 mg/kg; details: mouse
[10] = In vivo Tmax was determined in murine septicemia at dose of 100 mg/kg; type: ADME, organism-based; parameters: dose 100 mg/kg; details: mouse
[11] = In vivo volume distribution (Vd) was determined in murine septicemia at dose of 100 mg/kg; type: ADME, organism-based; parameters: dose 100 mg/kg; details: mouse
[12] = In vivo total clearance was determined in murine septicemia at dose of 100 mg/kg; type: ADME, organism-based; parameters: dose 100 mg/kg; details: mouse, read-out: CLtotal (converted)
[13] = In vivo Cmax in mice at dose of 100 mg/kg; type: ADME, organism-based; parameters: dose 100 mg/kg; details: mouse

| SMILES | AUC [1] [µg·h/mL] | clearance [2] [mL/min/kg] | half-life [3] [h] | Cmax [4] [µg/mL] | Tmax [5] [h] | Vd [6] [L/kg] | MIC (Staphylococcus aureus [7]) [µg/mL] | MIC (Enterococcus faecalis) [µg/mL] | MIC (Enterococcus faecium) [µg/mL] | ED50 (Mus musculus) [mg/kg] | MIC (Staphylococcus aureus [8]) [µg/mL] | AUC [9] [µg·h/mL] | Tmax [10] [h] | Vd [11] [L/kg] | clearance [12] [mL/min/kg] | Cmax [13] [µg/mL] |
| --- | --- | --- | --- | --- | --- | --- | --- | --- | --- | --- | --- | --- | --- | --- | --- | --- |
| CCCCCCCCCC(=O)N[C@@H](Cc1c[nH]c2ccccc12)C(=O)N[C@H](CC(N)=O)C(=O)N[C@@H](CC(=O)O)C(=O)N[C@@H]1C(=O)NCC(=O)N[C@@H](CCCNC(=N)N)C(=O)N[C@@H](CC(=O)O)C(=O)N[C@H](C)C(=O)N[C@@H](CC(=O)O)C(=O)NCC(=O)N[C@H](CO)C(=O)N[C@@H]([C@H](C)CC(=O)O)C(=O)N[C@@H](CC(=O)c2ccccc2N)C(=O)O[C@@H]1C [listing 1 of 2 here] | 766 | 1.08 | 2.1 | 254 | 0.5 | 0.198 | – | – | – | – | – | – | – | – | – | – |
| CCCCCCCCCC(=O)N[C@@H](Cc1c[nH]c2ccccc12)C(=O)N[C@H](CC(N)=O)C(=O)N[C@@H](CC(=O)O)C(=O)N[C@@H]1C(=O)NCC(=O)N[C@@H](CCCN)C(=O)N[C@@H](CC(=O)O)C(=O)N[C@H](C)C(=O)N[C@@H](CC(=O)O)C(=O)NCC(=O)N[C@H](CO)C(=O)N[C@@H]([C@H](C)CC(=O)O)C(=O)N[C@@H](CC(=O)c2ccccc2N)C(=O)O[C@@H]1C | 489 | 1.7 | 1.7 | 214 | 0.5 | 0.251 | 0.39 (≈ 0.241 µM) | 1.56 (≈ 0.963 µM) | 1.56 (≈ 0.963 µM) | 0.22 | 0.78 (≈ 0.481 µM) | – | – | – | – | – |
| CCCCCCCCCC(=O)N[C@@H](Cc1c[nH]c2ccccc12)C(=O)N[C@H](CC(N)=O)C(=O)N[C@@H](CC(=O)O)C(=O)N[C@@H]1C(=O)NCC(=O)N[C@@H](CCCNC(=O)c2c(N)ccc3ccccc23)C(=O)N[C@@H](CC(=O)O)C(=O)N[C@H](C)C(=O)N[C@@H](CC(=O)O)C(=O)NCC(=O)N[C@H](CO)C(=O)N[C@@H]([C@H](C)CC(=O)O)C(=O)N[C@@H](CC(=O)c2ccccc2N)C(=O)O[C@@H]1C | 2820 | 0.3 | 5.6 | 230 | 4 | 0.143 | – | – | – | – | – | – | – | – | – | – |
| CCCCCCCCCC(=O)N[C@@H](Cc1c[nH]c2ccccc12)C(=O)N[C@H](CC(N)=O)C(=O)N[C@@H](CC(=O)O)C(=O)N[C@@H]1C(=O)NCC(=O)N[C@@H](CCCNC(=O)C2Cc3c([nH]c4ccccc34)CN2)C(=O)N[C@@H](CC(=O)O)C(=O)N[C@H](C)C(=O)N[C@@H](CC(=O)O)C(=O)NCC(=O)N[C@H](CO)C(=O)N[C@@H]([C@H](C)CC(=O)O)C(=O)N[C@@H](CC(=O)c2ccccc2N)C(=O)O[C@@H]1C (some centres undefined) [listing 1 of 2 here] | – | – | – | – | – | – | 0.78 (≈ 0.429 µM) | 12.5 (≈ 6.87 µM) | 3.1 (≈ 1.7 µM) | 1.75 | 0.78 (≈ 0.429 µM) | – | – | – | – | – |
| CCCCCCCCCC(=O)N[C@@H](Cc1c[nH]c2ccccc12)C(=O)N[C@H](CC(N)=O)C(=O)N[C@@H](CC(=O)O)C(=O)N[C@@H]1C(=O)NCC(=O)N[C@@H](CCCNC(=O)C(N)CCc2c[nH]c3ccccc23)C(=O)N[C@@H](CC(=O)O)C(=O)N[C@H](C)C(=O)N[C@@H](CC(=O)O)C(=O)NCC(=O)N[C@H](CO)C(=O)N[C@@H]([C@H](C)CC(=O)O)C(=O)N[C@@H](CC(=O)c2ccccc2N)C(=O)O[C@@H]1C (some centres undefined) [listing 1 of 2 here] | – | – | – | – | – | – | 0.78 (≈ 0.428 µM) | 3.1 (≈ 1.7 µM) | 1.56 (≈ 0.857 µM) | 0.15 | 0.78 (≈ 0.428 µM) | – | – | – | – | – |
| CCCCCCCCCC(=O)N[C@@H](Cc1c[nH]c2ccccc12)C(=O)N[C@H](CC(N)=O)C(=O)N[C@@H](CC(=O)O)C(=O)N[C@@H]1C(=O)NCC(=O)N[C@@H](CCCNC(=O)C(N)CCc2c[nH]c3ccccc23)C(=O)N[C@@H](CC(=O)O)C(=O)N[C@H](C)C(=O)N[C@@H](CC(=O)O)C(=O)NCC(=O)N[C@H](CO)C(=O)N[C@@H]([C@H](C)CC(=O)O)C(=O)N[C@@H](CC(=O)c2ccccc2N)C(=O)O[C@@H]1C (some centres undefined) [listing 2 of 2 here] | 936 | 0.883 | 2.8 | 258 | 1 | 0.216 | – | – | – | – | – | – | – | – | – | – |
| CCCCCCCCCC(=O)N[C@@H](Cc1c[nH]c2ccccc12)C(=O)N[C@H](CC(N)=O)C(=O)N[C@@H](CC(=O)O)C(=O)N[C@@H]1C(=O)NCC(=O)N[C@@H](CCCNC(=O)[C@@H](N)CCCCN)C(=O)N[C@@H](CC(=O)O)C(=O)N[C@H](C)C(=O)N[C@@H](CC(=O)O)C(=O)NCC(=O)N[C@H](CO)C(=O)N[C@@H]([C@H](C)CC(=O)O)C(=O)N[C@@H](CC(=O)c2ccccc2N)C(=O)O[C@@H]1C | 589 | 1.42 | 1.2 | 297 | 0.5 | 0.147 | – | – | – | – | – | – | – | – | – | – |
| CCCCCCCCCC(=O)N[C@@H](Cc1c[nH]c2ccccc12)C(=O)N[C@H](CC(N)=O)C(=O)N[C@@H](CC(=O)O)C(=O)N[C@@H]1C(=O)NCC(=O)N[C@@H](CCCNC(=N)N)C(=O)N[C@@H](CC(=O)O)C(=O)N[C@H](C)C(=O)N[C@@H](CC(=O)O)C(=O)NCC(=O)N[C@H](CO)C(=O)N[C@@H]([C@H](C)CC(=O)O)C(=O)N[C@@H](CC(=O)c2ccccc2N)C(=O)O[C@@H]1C [listing 2 of 2 here] | – | – | – | – | – | – | 0.78 (≈ 0.469 µM) | 12.5 (≈ 7.52 µM) | 6.25 (≈ 3.76 µM) | 0.17 | 0.78 (≈ 0.469 µM) | – | – | – | – | – |
| CCCCCCCCCC(=O)N[C@@H](Cc1c[nH]c2ccccc12)C(=O)N[C@H](CC(N)=O)C(=O)N[C@@H](CC(=O)O)C(=O)N[C@@H]1C(=O)NCC(=O)N[C@@H](CCCNC(=O)C2Cc3c([nH]c4ccccc34)CN2)C(=O)N[C@@H](CC(=O)O)C(=O)N[C@H](C)C(=O)N[C@@H](CC(=O)O)C(=O)NCC(=O)N[C@H](CO)C(=O)N[C@@H]([C@H](C)CC(=O)O)C(=O)N[C@@H](CC(=O)c2ccccc2N)C(=O)O[C@@H]1C (some centres undefined) [listing 2 of 2 here] | – | – | > 6 | 418 | 6 | – | – | – | – | – | – | – | – | – | – | – |
| CCCCCCCCCC(=O)N[C@@H](Cc1c[nH]c2ccccc12)C(=O)N[C@H](CC(N)=O)C(=O)N[C@@H](CC(=O)O)C(=O)N[C@@H]1C(=O)NCC(=O)N[C@@H](CCCNC(=O)c2ccccc2N)C(=O)N[C@@H](CC(=O)O)C(=O)N[C@H](C)C(=O)N[C@@H](CC(=O)O)C(=O)NCC(=O)N[C@H](CO)C(=O)N[C@@H]([C@H](C)CC(=O)O)C(=O)N[C@@H](CC(=O)c2ccccc2N)C(=O)O[C@@H]1C | – | – | 2.4 | – | – | – | – | – | – | – | – | 1500 | 0.5 | 0.23 | 1.1 | 464 |
